22 molecules from patent US7101664B2, “Bioactive oligopeptides” (Polymun Scientific Immunbiologische Forschung GmbH, priority 1999, dated 2006) can be followed below.

In data set [1] the test system is Mouse hybridoma CAU 96. The data set can be described thus: Batch T-flask culture of hybridoma with oligopeptide supplements (Example 2). Format: cell-based. As to conditions: for growth stimulating effect on the hybridoma cell line (in words): Tables 3 to 7. The text has this: Cells: Mouse hybridoma CAU 96 producing monoclonal lgG2a
Starting viable cell density is 310000 (3.1*10^5) cells per ml.

The test system of data set [2] is Mouse hybridoma CAU 96.
Protocol: (§1) Cells: Mouse hybridoma CAU 96 producing monoclonal lgG2a antibody.
(§2) Medium: DMEM/F-12/RPMI 1640 (2:1:1) supplemented with Basal Medium Eagle (BME) amino acids, 2.0 mM glutamine, 15 mM HEPES (N-2-Hydroxyethylpiperazine-N′-2-ethanesulfonic acid), 2.0 g/l sodium bicarbonate and 0.4 mM ferric citrate.
(§3) Culture mode: 25 cm^3 T-flasks (Nunc) culture volume 6.0 ml, placed at 37° C. in an incubator with 5% CO^2; starting viable cell density is 3.1×10^5 cells per ml.
(§4) Preparation of samples of amino acid analysis: Cells are removed by low-speed centrifugation and macromolecular components are removed by ultrafiltration.
Data set [3] has as its system Mouse hybridoma CAU 96. This is another data set of the same source.
Protocol: Medium: DMEM/F-12/RPMI 1640 (2:1:1) supplemented with BME amino acids, MEM non essential amino acids, 2.0 mM glutamine, 15 mM HEPES, 2.0 g/L sodium bicarbonate and 0.4 mM ferric citrate.
Culture mode: 25 cm^2 T-flasks (Supplier: Nunc), culture volume 6.0 ml, placed at 37° C. in an incubator with 5% CO2; starting viable cell density is 3.1×10^5 cells per ml.
Data set [4] has as its system Mouse hybridoma CAU 96. Kind of data set: Amino acid analysis of the culture medium during cultivation of hybridoma cells with tetrapeptide.
Protocol: as §1, §2, §3, §4
Setting [5] is: Table 3, Day 7, supplement 0.2% w/v.
Where [6] appears, read: Table 6, Day 6, supplement 0.1% w/v.
[7] abbreviates: Table 6, Day 6, supplement 0.2% w/v.
Where [8] appears, read: Table 5, Day 6, supplement 0.05% w/v.
The mark [9] stands for this setting: Table 5, Day 6, supplement 0.1% w/v.
The mark [10] stands for this setting: Table 5, Day 6, supplement 0.2% w/v.
Setting [11] is: Table 5, Day 6, supplement 0.3% w/v.
Where [12] appears, read: Table 7, Day 6, supplement 0.05% w/v.
The mark [13] stands for this setting: Table 7, Day 6, supplement 0.1% w/v.
Where [14] appears, read: Table 7, Day 6, supplement 0.2% w/v.
Setting [15] is: Table 4, Day 6, supplement 0.1% w/v.
Where [16] appears, read: Table 4, Day 6, supplement 0.2% w/v.

Where two headings read alike, the source gives them in different places. Where a SMILES comes first, the peptide text is derived from it. Where no end group is shown, it is not given here. [ ]: non-standard residue; d: D form. βAla = NCCC(=O)O

For the molecule Diglycine, in the data set on Mouse hybridoma CAU 96 [1], the “Viable cell number % of control” value is recorded as 114 % of control. In addition, in the data set with Mouse hybridoma CAU 96 [1] (setting [5]), the Monoclonal antibody is on record as 165 mg/L, the Viability was determined as 70% and the Viable cell number stood at 1210 cells/μL.
Take Gly-Arg-Gly: in the data set on Mouse hybridoma CAU 96 [1] (setting [6]), the Monoclonal antibody worked out at 106 mg/L, the Viability is listed as 65% and the Viable cell number was 1360 cells/μL. In addition, in the data set with Mouse hybridoma CAU 96 [1] (setting [7]), the Monoclonal antibody is listed as 121 mg/L, the Viability amounted to 66% and the Viable cell number is on record as 1270 cells/μL.
Turning to Thr-Thr-Thr [Trithreonine], the Monoclonal antibody came out at 122 mg/L with Mouse hybridoma CAU 96 [1] (setting [8]), 130 mg/L in the data set on Mouse hybridoma CAU 96 [1] (setting [9]) and 152 mg/L in the data set on Mouse hybridoma CAU 96 [1] (setting [10]). Further, the figures for the Viability in the data set with Mouse hybridoma CAU 96 [1] (setting [8]), in the data set on Mouse hybridoma CAU 96 [1] (setting [9]) and with Mouse hybridoma CAU 96 [1] (setting [10]) were 67%, 70% and 73%, respectively. Besides, the figures for the Viable cell number with Mouse hybridoma CAU 96 [1] (setting [8]), with Mouse hybridoma CAU 96 [1] (setting [9]) and with Mouse hybridoma CAU 96 [1] (setting [10]) were 1310 cells/μL, 1370 cells/μL and 1450 cells/μL, respectively.
In the data set with Mouse hybridoma CAU 96 [1] (setting [6]), Gly-Lys-Gly returned a Monoclonal antibody of 128 mg/L, a Viability of 67% and a Viable cell number of 1250 cells/μL. In the data set with Mouse hybridoma CAU 96 [1] (setting [7]), this molecule gave a Monoclonal antibody of 154 mg/L, a Viability of 62% and a Viable cell number of 1100 cells/μL.
With `NCC(=O)NCC(=O)NCC(=O)O` [Triglycine, Gly-Gly-Gly] (H-Gly-Gly-Gly-OH), the Viability in the data set with Mouse hybridoma CAU 96 [1] (0.1 % w/v) was found to be 78%. Besides, the Monoclonal antibody with Mouse hybridoma CAU 96 [1] (setting [5]) came to 160 mg/L; in the data set with Mouse hybridoma CAU 96 [1] (setting [6]), 98 mg/L; in the data set with Mouse hybridoma CAU 96 [1] (setting [7]) it was 89 mg/L. The figures for the Viable cell number in the data set on Mouse hybridoma CAU 96 [1] (setting [5]), in the data set on Mouse hybridoma CAU 96 [1] (setting [6]) and in the data set with Mouse hybridoma CAU 96 [1] (setting [7]) were 1660 cells/μL, 1350 cells/μL and 1300 cells/μL, respectively.
In the case of Ser-Ser-Ser [Triserine], the Monoclonal antibody with Mouse hybridoma CAU 96 [1] (setting [8]) came to 109 mg/L; in the data set with Mouse hybridoma CAU 96 [1] (setting [9]), 112 mg/L; in the data set with Mouse hybridoma CAU 96 [1] (setting [10]) it was 126 mg/L; with Mouse hybridoma CAU 96 [1] (setting [11]) it was 142 mg/L. Further, the Viability in the data set on Mouse hybridoma CAU 96 [1] (setting [8]) turned out to be 61%; in the data set on Mouse hybridoma CAU 96 [1] (setting [9]) it was 65%; with Mouse hybridoma CAU 96 [1] (setting [10]), 70%; in the data set with Mouse hybridoma CAU 96 [1] (setting [11]), 78%. Besides, the Viable cell number in the data set on Mouse hybridoma CAU 96 [1] (setting [8]) was 1200 cells/μL; in the data set on Mouse hybridoma CAU 96 [1] (setting [9]), 1340 cells/μL; with Mouse hybridoma CAU 96 [1] (setting [10]), 1550 cells/μL; with Mouse hybridoma CAU 96 [1] (setting [11]) it was 1610 cells/μL.
In the data set on Mouse hybridoma CAU 96 [1] (setting [12]), Gly-βAla-Gly-Gly (G[βAla]GG) showed a Monoclonal antibody of 121 mg/L, a Viability of 68% and a Viable cell number of 1100 cells/μL. In the data set on Mouse hybridoma CAU 96 [1] (setting [13]), this molecule showed a Monoclonal antibody of 129 mg/L, a Viability of 65% and a Viable cell number of 1150 cells/μL. In the data set on Mouse hybridoma CAU 96 [1] (setting [14]), this molecule returned a Monoclonal antibody of 150 mg/L, a Viability of 72% and a Viable cell number of 1270 cells/μL.
Consider `NCC(=O)O` [Glycine, reference compound], for which, in the data set on Mouse hybridoma CAU 96 [1], the “Viable cell number % of control” value is 102 % of control and the “growth stimulating effect on the hybridoma cell line (in words)” value (“growth stimulating effect” below) is given as “does not significantly stimulate cell growth”. In the data set on Mouse hybridoma CAU 96 [1] (setting [5]), this molecule came in with a Monoclonal antibody of 160 mg/L, a Viability of 60% and a Viable cell number of 1080 cells/μL.
In the data set on Mouse hybridoma CAU 96 [1] (setting [13]), Gly-Gly-Lys-Ala (GGKA) returned a Monoclonal antibody of 118 mg/L, a Viability of 79% and a Viable cell number of 1310 cells/μL. Moreover, in the data set with Mouse hybridoma CAU 96 [1] (setting [14]), the Monoclonal antibody is listed as 134 mg/L, the Viability came out at 78% and the Viable cell number is 1290 cells/μL.
Take Gly-Asp-Gly: in the data set on Mouse hybridoma CAU 96 [1] (setting [6]), the Monoclonal antibody turned out to be 98 mg/L, the Viability is reported as 64% and the Viable cell number came out at 1340 cells/μL. In the data set with Mouse hybridoma CAU 96 [1] (setting [7]), this molecule had a Monoclonal antibody of 92 mg/L, a Viability of 70% and a Viable cell number of 1420 cells/μL.
On to `NCC(=O)NCC(=O)NCC(=O)NCC(=O)O` [Tetraglycine, Gly-Gly-Gly-Gly] (H-GGGG-OH; N-terminus and C-terminus assumed), for which the “Viable cell number % of control” value in the data set on Mouse hybridoma CAU 96 [1] is given as 176 % of control. For the same molecule, the Viability in the data set on Mouse hybridoma CAU 96 [1] (0.2 % w/v) is on record as 80%; in the data set on Mouse hybridoma CAU 96 [3] (0.1 % w/v), 78%; in the data set on Mouse hybridoma CAU 96 [3] (0.2 % w/v) it was 77%; with Mouse hybridoma CAU 96 [3] (0.3 % (w/v)), 80%. Besides, in the data set on Mouse hybridoma CAU 96 [2], the “Amino acid concentration, Day 0” value was found to be 7.14 mM. The “Amino acid concentration, Day 4” value in the data set with Mouse hybridoma CAU 96 [2] amounted to 6.55 mM.
In the data set with Mouse hybridoma CAU 96 [1] (setting [6]), Gly-His-Gly showed a Monoclonal antibody of 121 mg/L, a Viability of 65% and a Viable cell number of 1180 cells/μL. In the data set on Mouse hybridoma CAU 96 [1] (setting [7]), this molecule showed a Monoclonal antibody of 144 mg/L, a Viability of 66% and a Viable cell number of 900 cells/μL.
On to `C[C@@H](O)[C@H](N)C(=O)O` [Threonine, reference compound], for which the “Viable cell number % of control” value in the data set on Mouse hybridoma CAU 96 [1] was 97 % of control. Also, in the data set on Mouse hybridoma CAU 96 [1] (setting [10]), the Monoclonal antibody is given as 114 mg/L, the Viability is recorded as 59% and the Viable cell number worked out at 1100 cells/μL.
For Gly-Gly-Gly-Gly-Gly-Gly [Hexaglycine], in the data set on Mouse hybridoma CAU 96 [1], the “Viable cell number % of control” value is 183 % of control. In the data set on Mouse hybridoma CAU 96 [1] (setting [5]), this molecule had a Monoclonal antibody of 160 mg/L, a Viability of 79% and a Viable cell number of 1940 cells/μL.
Consider `NCCC(=O)O` [β-alanine, reference compound], for which, in the data set with Mouse hybridoma CAU 96 [1], the “Viable cell number % of control” value is 106 % of control and the “growth stimulating effect” value was “insignificant”. In the data set on Mouse hybridoma CAU 96 [1] (setting [10]), the Monoclonal antibody was 105 mg/L, the Viability was 60% and the Viable cell number amounted to 1210 cells/μL.
For Gly-Gly-Glu-Ala (GGEA), in the data set on Mouse hybridoma CAU 96 [1] (setting [13]), the Monoclonal antibody was 100 mg/L, the Viability is 82% and the Viable cell number was 1350 cells/μL. Also, in the data set with Mouse hybridoma CAU 96 [1] (setting [14]), the Monoclonal antibody is 113 mg/L, the Viability is 77% and the Viable cell number turned out to be 1280 cells/μL.
As to `C[C@H](N)C(=O)N[C@@H](C)C(=O)N[C@@H](C)C(=O)N[C@@H](C)C(=O)O` [Tetraalanine, Ala-Ala-Ala-Ala] (H-AAAA-OH; N-terminus and C-terminus assumed), the “Amino acid concentration, Day 0” value in the data set with Mouse hybridoma CAU 96 [4] (Table 2, culture medium with tetraalanine, day 0) is listed as 1.84. In addition, the “Amino acid concentration, Day 4” value in the data set with Mouse hybridoma CAU 96 [4] (Table 2, culture medium with tetraalanine, day 4) is recorded as 1.28. Further, the “Amino acid concentration, Difference” value in the data set on Mouse hybridoma CAU 96 [4] (Table 2, day 4 minus day 0) is listed as −0.56. Besides, the values for the Viability in the data set with Mouse hybridoma CAU 96 [1] (0.1 % w/v) and in the data set on Mouse hybridoma CAU 96 [1] (0.2 % w/v) were 66% and 72%, respectively.
Regarding Ala-Ala-Ala [Trialanine], in the data set on Mouse hybridoma CAU 96 [1] (setting [15]), the Monoclonal antibody is reported as 130 mg/L, the Viability was found to be 69% and the Viable cell number was 1390 cells/μL. Moreover, in the data set on Mouse hybridoma CAU 96 [1] (setting [16]), the Monoclonal antibody worked out at 132 mg/L, the Viability came out at 70% and the Viable cell number is 1420 cells/μL.
On to Gly-Gly-Gly-Gly-Gly [Pentaglycine], for which the “Viable cell number % of control” value with Mouse hybridoma CAU 96 [1] is given as 190 % of control. In the data set on Mouse hybridoma CAU 96 [1] (setting [5]), the Monoclonal antibody amounted to 165 mg/L, the Viability is 82% and the Viable cell number stood at 2020 cells/μL.
Consider `N[C@@H](CO)C(=O)O` [Serine, reference compound], for which, in the data set on Mouse hybridoma CAU 96 [1], the “Viable cell number % of control” value is 104 % of control and the “growth stimulating effect” value is “insignificant”. For the same molecule, in the data set on Mouse hybridoma CAU 96 [1] (setting [10]), the Monoclonal antibody stood at 111 mg/L, the Viability was found to be 63% and the Viable cell number stood at 1190 cells/μL.
For the molecule `C[C@H](N)C(=O)O` [Alanine, reference compound], in the data set with Mouse hybridoma CAU 96 [1], the “Viable cell number % of control” value is 94 % of control and the “growth stimulating effect” value was “insignificant”. Also, in the data set on Mouse hybridoma CAU 96 [1] (setting [16]), the Monoclonal antibody amounted to 110 mg/L, the Viability came out at 60% and the Viable cell number came to 1030 cells/μL.
Gly-Gly-His-Gly (GGHG): in the data set on Mouse hybridoma CAU 96 [1] (setting [13]), the Monoclonal antibody worked out at 93 mg/L, the Viability stood at 77% and the Viable cell number is given as 1360 cells/μL. Also, in the data set on Mouse hybridoma CAU 96 [1] (setting [14]), the Monoclonal antibody was 84 mg/L, the Viability is 71% and the Viable cell number came out at 1180 cells/μL.
